In publication PMC9863409, “Combining the In Silico and In Vitro Assays to Identify Strobilanthes cusia Kuntze Bioactives against Penicillin-Resistant Streptococcus pneumoniae” (Pharmaceuticals, 2023):
Converted amounts (≈) assume the structure as drawn.

target: T1, SP_2141 (beta-Hexosaminidase) (Streptococcus pneumoniae, UniProt A0A0H2US73); experiment: SPR (Biacore 8K, CM5 chip, immobilized protein, steady-state affinity); type: binding
T1 construct: recombinant from PRSP F3983 genomic DNA, pET-28a (+) with N-terminal 6 × His tag
T1 sequence (A0A0H2US73 entry or part of it): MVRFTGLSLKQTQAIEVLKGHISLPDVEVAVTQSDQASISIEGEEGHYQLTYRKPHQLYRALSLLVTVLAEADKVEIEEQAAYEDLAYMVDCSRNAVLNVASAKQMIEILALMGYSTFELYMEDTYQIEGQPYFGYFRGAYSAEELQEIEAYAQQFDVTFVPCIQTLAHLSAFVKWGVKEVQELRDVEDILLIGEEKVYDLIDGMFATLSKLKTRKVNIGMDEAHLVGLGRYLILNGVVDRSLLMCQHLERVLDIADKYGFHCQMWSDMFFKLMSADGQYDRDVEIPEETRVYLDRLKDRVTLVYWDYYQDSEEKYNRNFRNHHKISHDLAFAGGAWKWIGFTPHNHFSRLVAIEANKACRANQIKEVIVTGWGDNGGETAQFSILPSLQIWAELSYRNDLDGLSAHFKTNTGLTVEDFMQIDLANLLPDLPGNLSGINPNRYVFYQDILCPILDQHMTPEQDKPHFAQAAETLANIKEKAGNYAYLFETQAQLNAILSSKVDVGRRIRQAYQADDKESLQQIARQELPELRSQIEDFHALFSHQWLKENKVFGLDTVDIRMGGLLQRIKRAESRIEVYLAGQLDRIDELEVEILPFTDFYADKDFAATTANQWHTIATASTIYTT

Row | SMILES | Kd [µM]
1 | O=C1c2ccccc2-n2c1nc1ccccc1c2=O [Tryptanthrin, Indolo(2,1-b)quinazoline-6,12-dione] | 6.43

target: T2, SP_2146 (alpha-fucosidase) (Streptococcus pneumoniae, UniProt A0A0H2US78); experiment: as above; type: binding
T2 construct: recombinant from PRSP F3983 genomic DNA, pET-28a (+) with N-terminal 6 × His tag
T2 sequence (A0A0H2US78 entry or part of it): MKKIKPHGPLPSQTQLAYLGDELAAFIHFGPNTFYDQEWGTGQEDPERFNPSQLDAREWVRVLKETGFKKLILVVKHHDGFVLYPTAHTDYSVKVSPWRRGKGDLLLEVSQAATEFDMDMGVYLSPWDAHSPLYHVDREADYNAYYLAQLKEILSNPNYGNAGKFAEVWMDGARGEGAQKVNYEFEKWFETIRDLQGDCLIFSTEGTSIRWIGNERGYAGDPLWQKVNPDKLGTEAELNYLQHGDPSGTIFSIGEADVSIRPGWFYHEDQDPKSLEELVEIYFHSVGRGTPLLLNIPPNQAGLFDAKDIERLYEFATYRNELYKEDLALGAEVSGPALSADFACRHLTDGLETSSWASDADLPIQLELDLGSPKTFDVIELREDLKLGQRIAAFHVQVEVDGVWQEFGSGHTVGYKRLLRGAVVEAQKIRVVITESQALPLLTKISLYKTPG

Row | SMILES | Kd [µM]
2 | O=C1c2ccccc2-n2c1nc1ccccc1c2=O [Tryptanthrin, Indolo(2,1-b)quinazoline-6,12-dione] | 8.82

target: StrH (exo-beta-D-N-acetylglucosaminidase) (Streptococcus pneumoniae, UniProt P49610); experiment: as above; type: binding
Sequence (P49610 626-1064): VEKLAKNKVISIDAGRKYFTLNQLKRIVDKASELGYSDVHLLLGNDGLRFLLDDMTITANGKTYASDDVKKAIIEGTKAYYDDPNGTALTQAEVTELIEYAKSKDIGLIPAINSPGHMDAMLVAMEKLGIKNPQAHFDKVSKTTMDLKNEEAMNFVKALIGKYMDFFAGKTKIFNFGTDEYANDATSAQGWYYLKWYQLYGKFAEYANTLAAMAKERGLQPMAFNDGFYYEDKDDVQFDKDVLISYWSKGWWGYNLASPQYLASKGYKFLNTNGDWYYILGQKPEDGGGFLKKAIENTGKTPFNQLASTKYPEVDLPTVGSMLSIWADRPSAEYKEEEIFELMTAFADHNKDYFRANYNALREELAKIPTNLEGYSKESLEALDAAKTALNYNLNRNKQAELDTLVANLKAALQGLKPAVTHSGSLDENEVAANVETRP

Row | SMILES | Kd [µM]
3 | O=C1c2ccccc2-n2c1nc1ccccc1c2=O [Tryptanthrin, Indolo(2,1-b)quinazoline-6,12-dione] | 7.16

test system: T3, Streptococcus pneumoniae PRSP F3983; experiment: microbe, parasite or virus in culture; set-up: MIC test of isolated compounds on penicillin-resistant Streptococcus pneumoniae F3983
T3 construct: F3983 (penicillin-resistant)
Description: 2.4.2. MIC Tests for the Isolated 23 Chemical Compounds on the PRSP F3983 The following supporting information can be downloaded at: https://www.mdpi.com/article/10.3390/ph16010105/s1; Table S1: Proteome_data sheet; Table S2: UPLC-UV-ESI-Q-TOF/MS analysis of S. cusia leaves; Table S3: NMR of 23 isolated compounds and their MICs against PRSP [69, 70, 71, 72, 73, 74, 75, 76, 77, 78, 79, 80, 81, 82, 83, 84, 85, 86, 87, 88, 89, 90, 91]; Table S4: Reverse-docking_active-pockets; Table S5: Reverse-docking_results_Tryptanthrin; Table S6: LMW-Kinetics-affinity_Tryptanthrin; Table S7: Primers and sequences of bgaA, StrH, SP_2141 and SP_2146 of F3983; Table S8: A scheme of Preparation of Isolated Compounds from S. cusia leaves

Row | SMILES | MIC [µg/mL]
4 | O=C1Cc2ccccc2N1 [compound 4, 1,3-dihydro-2H-indol-2-one] | 400 (≈ 3000 µM)
5 | CC(=O)/C=C/[C@H]1C(C)=C[C@H](O)CC1(C)C [compound 3, (3R,6R,7E)-3-hydroxy-4,7-megastigmadien-9-one] | 400 (≈ 1920 µM)
6 | O=c1c2ccccc2ncn1-c1ccccc1O [compound 13, 3-(2'-hydroxyphenyl)-4(3H)-quinazolinone] | 400 (≈ 1680 µM)
7 | O=C1Nc2ccccc2OC1O (stereo not shown) [compound 16, 2-hydroxy-(2H)-1,4-benzoxazin-3(4H)-one] | > 800
8 | CC1(C)C[C@H](O)C[C@@]2(C)OC(=O)C=C12 [compound 12, Calendin] | > 800
9 | O=C(O)c1ccc(C(=O)O)[nH]1 [compound 5, 1H-pyrrole-2,5-diacarboxylic acid] | 200 (≈ 1290 µM)
10 | O=Cc1c[nH]c2ccccc12 [compound 14, 1H-indole-3-carboxadehyde] | > 800
11 | CCCCC(CC)COC(=O)c1ccccc1C(=O)OCC(CC)CCCC (stereo not shown) [compound 6, bis(2-ethylhexyl) benzene-1,2-dicarboxylate] | > 800
12 | COc1c(O)cc2oc(-c3ccc(O)cc3)cc(=O)c2c1O [compound 15, hispidulin] | 200 (≈ 666 µM)
13 | CC(=O)C=CC1=C(C)CC(O)CC1(C)C (single isomer, unassigned; (-)) [compound 9, (-)-3-hydroxy-β-ionone] | > 800
14 | CC(O)C(=O)Nc1ccccc1O (stereo not shown) [compound 17, 2-hydroxy-N-(2-hydroxyphenyl)propionamide] | > 800
15 | O=c1c2ccccc2nc2n1CCC2 [compound 20, deoxyvasicinone] | > 800
16 | CC(C)COC(=O)c1ccccc1C(=O)OCC(C)C [compound 7, phthalic acid isodibutyl ester] | > 800
17 | CC(=O)c1ccc(O)cc1 [compound 19, p-hydroxyacetophenone] | 200 (≈ 1470 µM)
18 | CCCCCCCC/C=C\CCCCCCCC(N)=O [compound 23, 9(Z)-octadece-nameid] | > 800
19 | CC(=O)C=CC12OC1(C)CC(O)CC2(C)C (stereo not drawn) [compound 11, 3β-hydroxy-5α,6α-epoxy-7-megastigmen-9-one] | 400 (≈ 1780 µM)
20 | COc1cc(C(=O)O)ccc1O [compound 10, 4-hydroxy-5-methoxy-benzoic acid] | > 800
21 | COC(=O)c1ccccc1NC(=O)c1c[nH]c2ccccc12 [compound 8, cephalandole B] | > 800
22 | NC(=O)c1cccnc1 [compound 21, Nicotinamide] | > 800
